The values that follow are results of earlier work, collected in PMC4369286 (Chemistry Central Journal, 2015).

Molecules are shown by their SMILES. Where two headings read alike, the source gives them in different places.

Details of data set [1]: method as in earlier work. The settings on record: direct partition, monomer.
For data set [2] the following is noted: for E (excess molar refractivity descriptor): known values used for comparison.
The conditions of data set [3]: value of the pure solvent.
For data set [4] the following is noted: in several of the organic solvents studied.
Setting [5] is: known value given as comparison.

For the compound `O=C(O)/C=C/c1ccccc1` [trans-cinnamic acid], the “Log Ps (water-solvent partition coefficient)” value in data set [1] (solvent Cyclohexane) is given as −0.25; in data set [1] (solvent Diethyl ether, wet), 1.92; in data set [1] (solvent Octan-1-ol, wet) it was 2.13; in data set [1] (solvent Tetrachloromethane), 0.40; in data set [1] (solvent Trichloromethane), 1.20.
On to `O=C(O)c1ccccc1` [Benzoic acid, benzoic acid], for which the “Kdimer (dimerization constant)” value is listed as 590 (in benzene), 11300 (in cyclohexane) and 5010 (in tetrachloromethane). The “S (dipolarity/polarity descriptor)” value in data set [2] (setting [5]) was 0.90. In addition, in data set [2] (setting [5]), the “V (McGowan characteristic volume descriptor)” value is given as 0.9317. In addition, the “E (excess molar refractivity descriptor)” value in data set [2] is on record as 0.73; in data set [2] (listed as benzoic acid) it was 0.730.
Take `CC#N` [acetonitrile]: the “Kamlet-Taft solvent hydrogen bond basicity, β” value in data set [3] is 0.40.
Turning to `CCOC(=O)c1ccccc1` [ethyl benzoate], the “E (excess molar refractivity descriptor)” value in data set [2] was 0.689.
Turning to `CO` [methanol], the “Kamlet-Taft solvent hydrogen bond basicity, β” value in data set [3] is 0.66.
Regarding `ClC(Cl)Cl` [trichloromethane], in data set [3], the “Kamlet-Taft solvent hydrogen bond basicity, β” value is on record as 0.10.
`CCOCC` [diethyl ether]: the “Kamlet-Taft solvent hydrogen bond basicity, β” value in data set [3] is 0.47.
For `CCOC(=O)/C=C/c1ccccc1` [ethyl cinnamate], the “E (excess molar refractivity descriptor)” value in data set [2] is given as 1.102.
As to `OCC(F)(F)F` [trifluoroethanol], the “Kamlet-Taft solvent hydrogen bond basicity, β” value in data set [3] is given as 0.00.
Regarding `CCCOC(C)=O` [propyl acetate], in data set [3], the “Kamlet-Taft solvent hydrogen bond basicity, β” value is 0.40.
For `O=[N+]([O-])c1ccccc1` [nitrobenzene], in data set [3], the “Kamlet-Taft solvent hydrogen bond basicity, β” value is given as 0.30.
Take `C1CCCCC1` [cyclohexane]: the “Kamlet-Taft solvent hydrogen bond basicity, β” value in data set [3] is on record as 0.00.
For `CC(=O)Oc1ccccc1C(=O)O` [aspirin], in data set [4], the “solubility in organic solvents” value is reported as “exceeding 1 molar”.
Take `CC(C)=O` [propanone]: in data set [3], the “Kamlet-Taft solvent hydrogen bond basicity, β” value was 0.43.
